Like-named read-outs stand apart in the source and are kept apart here.
Columns and labels:
[1] = tested on: motion sickness in White/white laboratory standard rats; experiment: rat centrifuge motion sickness test; type: in vivo
Procedure: In test group A, the rats were given scopolamine.
Group B served as a control and was treated with uncoupled scopolamine and a starch matrix carrier without sugar chains.
The membrane size was 1×1 mm made out of starch. To this the labelled sugar chains were coupled and one membrane was put under the upper lip of each rat.
Three equally calibrated centrifuges were used in the test, one for each group of rats A, B, C. Each centrifuge was placed in a box having an entrance/exit through which the rats could move freely between their cage and the centrifuge box. The rats were first allowed to find their way into the centrifuge box before they were lifted up and placed in the centrifuge.
The rats were subsequently spun in the centrifuges at 3 G during 30 seconds.
After centrifugation, the ability of each group A, B, C to localize the exit in the centrifuge box and to return to the cage as well as general steadiness were observed.

[2] = rat, in vivo
Procedure: White/white laboratory standard rats were used for the tests. In test group A, the rats were given scopolamine.
The rats were terminated by carbon-dioxide 4 h after centrifugation and the intestinal organs were examined. The presence of scopolamine or citalopram in the rat bodies was detected by spectrophotometrics and digital imaging as described in Goncalves, Diaz and Moses et al.

[3] = tested on: headache caused by the red wine; experiment: relief of red wine headache in voluntary humans; type: in vivo, human; conditions: Group A: 40 mg (1/10 of normal oral dose) bonded to a carrier according to the invention
Procedure: A further test was performed on voluntary humans. The test was performed on a group of 19 persons. Each test person was given 2 L of red wine without gender discrimination. The wine was consumed during 3 hours the evening before testing. The following morning the individuals were divided into two groups A and B, respectively. Group A received 40 mg ( 1/10 of a normal orally administered dose) of ibumetine bonded to a carrier according to the invention. Group B where given an empty membrane with only sugar chains and no active substance. Group A felt a total relief of the headache caused by the red wine within 5 minutes, whereas group B felt no relief at all from the bare membrane with sugar chains. Group B where therefore treated with 400 mg ibumetine by conventional oral delivery. Various degrees of relief were noted after 45 min-1 h. The test procedure is diagrammatically illustrated in FIG. 3.

[4] = White/white laboratory standard, 4 h

SMILES: CN1[C@@H]2C[C@@H](OC(=O)[C@H](CO)c3ccccc3)C[C@H]1[C@@H]1O[C@@H]12 [scopolamine]
- behaviour / signs of motion sickness after centrifugation ([1]; Group A: 1/10 of a normal dose bound by sugar chains to starch matrix, under upper lip, 3 G, 30 seconds): no change in normal behaviour
- ability to localize the exit in the centrifuge box ([1]; Group A: 1/10 of a normal dose bound by sugar chains to starch matrix, 3 G, 30 seconds): managed to directly locate the exit
- behaviour / signs of motion sickness after centrifugation ([1]; Group B: same amount of uncoupled substance with starch matrix without sugar chains, 3 G, 30 seconds): clear signs of motion sickness
- ability to localize the exit in the centrifuge box ([1]; Group B: uncoupled substance, starch matrix without sugar chains, test period of 1 h): could not find the exit
- active substance in kidney or liver ([2]; White/white laboratory standard): over 75%
- active substance in the kidneys [2]: less than 0.1%
- active substance in the liver [2]: less than 0.2%

SMILES: CC(C)Cc1ccc(C(C)C(=O)O)cc1 (stereo not shown) [ibumetine]
- time to total relief of the headache [3]: ≤ 5 min

SMILES: CN(C)CCCC1(c2ccc(F)cc2)OCc2cc(C#N)ccc21 (stereo not shown) [citalopram]
- active substance in kidney or liver [2, 4]: over 75%
- active substance in the brain [2, 4]: less than 4%
- active substance in the brain ([2]; 4 h): 99%
- active substance in the kidneys ([2]; 4 h): less than 0.1%
- active substance in the liver ([2]; 4 h): less than 0.2%
